Test results reported in paper PMC9866905, “Dehydroeburicoic Acid, a Dual Inhibitor against Oxidative Stress in Alcoholic Liver Disease” (Pharmaceuticals, 2022).

Assays:
GSK3β = molecular target: T1, GSK3β (Homo sapiens, UniProt P49841); experiment: ADP-Glo luminescent kinase assay, dose-response; supported by CETSA in LO2 lysate (ΔTm ca. […] °C); type: biochemical
T1 construct: gene GSK3B

Keap1 = Keap1 (Homo sapiens, UniProt Q14145); experiment: fluorescence polarization competition with labeled Nrf2 (ETGE) peptide, dose-response; supported by CETSA in LO2 lysate (ΔTm ca. […] °C); type: binding; details: read-out: EC50 (the source's name)
Chain of Keap1 (Q14145 whole entry): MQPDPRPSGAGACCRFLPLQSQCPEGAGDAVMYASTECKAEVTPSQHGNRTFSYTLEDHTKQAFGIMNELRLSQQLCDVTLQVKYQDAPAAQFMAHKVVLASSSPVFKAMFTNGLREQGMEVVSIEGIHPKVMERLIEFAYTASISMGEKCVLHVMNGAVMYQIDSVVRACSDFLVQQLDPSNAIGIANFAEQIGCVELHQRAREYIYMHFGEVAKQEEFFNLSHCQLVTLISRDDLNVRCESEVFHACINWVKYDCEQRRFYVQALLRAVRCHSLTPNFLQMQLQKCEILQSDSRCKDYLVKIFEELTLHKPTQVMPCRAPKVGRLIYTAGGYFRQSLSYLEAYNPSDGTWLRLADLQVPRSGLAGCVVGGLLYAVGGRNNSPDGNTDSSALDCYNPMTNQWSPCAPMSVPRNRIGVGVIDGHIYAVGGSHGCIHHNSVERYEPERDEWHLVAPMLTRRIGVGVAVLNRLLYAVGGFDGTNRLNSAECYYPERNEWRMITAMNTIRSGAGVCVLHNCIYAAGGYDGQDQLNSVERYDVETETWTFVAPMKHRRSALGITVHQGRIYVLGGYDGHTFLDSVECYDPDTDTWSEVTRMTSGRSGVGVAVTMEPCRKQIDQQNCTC

T1 sequence (P49841 whole entry): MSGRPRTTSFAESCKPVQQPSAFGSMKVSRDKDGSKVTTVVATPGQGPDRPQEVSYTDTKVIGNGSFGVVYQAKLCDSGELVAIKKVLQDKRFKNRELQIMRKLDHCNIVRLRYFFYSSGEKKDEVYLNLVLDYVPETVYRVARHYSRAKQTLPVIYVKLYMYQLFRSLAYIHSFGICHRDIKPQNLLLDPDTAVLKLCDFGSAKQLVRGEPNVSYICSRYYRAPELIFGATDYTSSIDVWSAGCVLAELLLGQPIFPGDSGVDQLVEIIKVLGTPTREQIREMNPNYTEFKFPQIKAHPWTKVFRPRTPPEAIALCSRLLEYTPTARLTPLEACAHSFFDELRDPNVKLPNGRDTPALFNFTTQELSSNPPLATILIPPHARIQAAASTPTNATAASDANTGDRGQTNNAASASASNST

With `C=C(CC[C@@H](C(=O)O)[C@H]1CC[C@@]2(C)C3=CC[C@H]4C(C)(C)[C@@H](O)CC[C@]4(C)C3=CC[C@]12C)C(C)C` [compound 1, Dehydroeburicoic acid] the EC50 (GSK3β) was 8 ± 0.7 µM and the IC50 (Keap1) was 14.1 ± 0.1 µM.
